Results on 17 molecules are retold here after patent US12240844B2 (Voronoi, Inc., priority 2019, dated 2025).

Structures are written as SMILES.

Type in all cases: cell-based
Assay [1] deals with SHP-77. The experiment in a line: SHP-77 cancer cell proliferation inhibition (Cell Titer-Glo). Particulars: Homo sapiens, SHP77, SHP-77 small cell lung cancer cell line, 72 hours. The gist of the method:
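GI50 comes from CellTiter-Glo luminescence, read 10 min after reagent addition at RT, following 72 h compound treatment. Eleven concentrations were used (⅓ steps, highest 10 μM final) on 2000 cells/well. MDA-MB-231 and MDA-MB-468 were grown in DMEM, SHP-77 in RPMI.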
(In general: Cellular ATP, detected with luciferase, serves as a proxy for viable cell number.)

The subject of assay [2] is IL-6. The assay is described as follows: IL-6 secretion inhibition in LPS-treated THP-1 cells (ELISA). Particulars: Homo sapiens, compound 0.5 μM, LPS 500 ng/ml, 24 hours, read-out: THP1/IL6 (% inhib). The gist of the method: (§1)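 Human monocytic THP-1 cells were pre-cultured 16 h at 37° C., then treated with compound at 0.5 μM final, followed by LPS at 500 ng/ml final. After 24 h, IL-6 and TNF-α in culture supernatant were quantified by ELISA with absorbance read at 450 nm.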
On the technique in general: ELISA stands for enzyme-linked immunosorbent assay.

For assay [3], the system named is TNF-α. The experiment in a line: TNF-α secretion inhibition in LPS-treated THP-1 cells (ELISA). Particulars: Homo sapiens, compound 0.5 μM, LPS 500 ng/ml, 24 hours, read-out: THP-1/TNF-a (% inhib). The gist of the method: as §1

A word on the GI50: it is the concentration that inhibits growth by half. The molecule `COCCNc1cc(Nc2ccc(S(=O)(=O)N3CCC(N4CCOCC4)CC3)c3c2OCCO3)nc2[nH]cc(C(F)(F)F)c12` [Example 97, N^4-(2-methoxyethyl)-N^6-(8-((4-morpholonopiperidin-1-yl)sulfonyl)-2,3-dihydrobenzo[b] [1,4]dioxin-5-yl)-3-(trifluoromethyl)-1H-pyrrolo[2,3-b]pyridine-4,6-diamine] came in with a GI50 in assay [1] of 0.301 to 1 µM. The inhibition at 0.5 µM in assay [2] was determined as 17%; in assay [3] it was 5.5%.

As to `CCNc1cc(Nc2ccc(C(=O)N3CCC(N4CCOCC4)CC3)c3c2OCO3)nc2[nH]cc(C(F)(F)F)c12` [Example 37, (7-((4-(ethylamino)-3-(trifluoromethyl)-1H-pyrrolo[2,3-b]pyridin-6-yl)amino)benzo[d][1,3]dioxol-4-yl)(4-morpholinopiperidin-1-yl)methanone], the inhibition at 0.5 µM in assay [3] turned out to be 100%.

On to `COc1cc(S(=O)(=O)N2CCOCC2)ccc1Nc1cc(C2CC2)c2c(C#N)c[nH]c2n1` [Example 227, 4-cyclopropyl-6-((2-methoxy-4-(morpholinosulfonyl)phenyl)amino)-1H-pyrrolo[2,3-b]pyridine-3-carbonitrile], for which the GI50 in assay [1] fell in the range of 0.301 to 1 µM.

On to `O=C(c1ccc(Nc2cc(C3CC3)c3c(C(F)(F)F)c[nH]c3n2)c2c1CCO2)N1CCOCC1` [Example 91, (7-((4-cyclopropyl-3-(trifluoromethyl)-1H-pyrrolo[2,3-b]pyridin-6-yl)amino)-2,3-dihydrobenzofuran-4-yl)(morpholino) methanone], for which the values for the inhibition at 0.5 µM in assay [2] and in assay [3] were 52.5% and 9.6%, respectively.

As to `CCNc1cc(Nc2ccc(C(=O)N3CCC(N4C[C@H]5C[C@@H]4CO5)CC3)c3c2OCC3)nc2[nH]cc(C(F)(F)F)c12` [Example 244, (4-((1R,4R)-2-oxa-5-azabicyclo[2.2.1]heptan-5-yl)piperidin-1-yl)(7-((4-(ethylamino)-3-(trifluoromethyl)-1H-pyrrolo[2,3-b]pyridin-6-yl)amino)-2,3-dihydrobenzofuran-4-yl)methanone], the values for the inhibition at 0.5 µM in assay [2] and in assay [3] were 40.1% and 12.7%, respectively.

Take `COc1cc(S(=O)(=O)N2CCC(N3CCOCC3)CC2)ccc1Nc1cc(C2CC2)c2c(C#N)c[nH]c2n1` [Example 228, 4-cyclopropyl-6-((2-methoxy-4-((4-morpholinopiperidin-1-yl)sulfonyl)phenyl)amino)-1H-pyrrolo[2,3-b]pyridine-3-carbonitrile]: the GI50 in assay [1] lay in the range of 0.051 to 0.1 µM.

With `CNc1cc(Nc2ccc(C(=O)N3CCC(N4CCOCC4)CC3)c3c2OCC3)nc2[nH]cc(C(F)(F)F)c12` [Example 234, (7-((4-(methylamino)-3-(trifluoromethyl)-1H-pyrrolo[2,3-b]pyridin-6-yl)amino)-2,3-dihydrobenzofuran-4-yl)(4-morpholinopiperidin-1-yl)methanone], the inhibition at 0.5 µM in assay [2] was determined as 50.9%; in assay [3] it was 12.4%.

With `COc1cc(S(=O)(=O)N2CCOCC2)ccc1Nc1cc(C2CC2)c2c(C(F)(F)F)c[nH]c2n1` [Example 222, 4-cyclopropyl-N-(2-methoxy-4-(morpholinosulfonyl)phenyl)-3-(trifluoromethyl)-1H-pyrrolo[2,3-b]pyridin-6-amine], the GI50 in assay [1] was in the range of 0.301 to 1 µM.

`CCNc1cc(Nc2ccc(C(=O)N3CCN(C4COC4)CC3)c3c2OCC3)nc2[nH]cc(C(F)(F)F)c12` [Example 248, (7-((4-(ethylamino)-3-(trifluoromethyl)-1H-pyrrolo[2,3-b]pyridin-6-yl)amino)-2,3-dihydrobenzofuran-4-yl)(4-(oxetan-3-yl)piperazin-1-yl)methanone]: the inhibition at 0.5 µM in assay [2] is 48.4%; in assay [3], 9.2%.

Consider `CCNc1cc(Nc2ccc(P3(=O)CCN(C4CCOCC4)CC3)cc2OC)nc2[nH]cc(C(F)(F)F)c12` [Example 94, 4-(4-((4-(ethylamino)-3-(trifluoromethyl)-1H-pyrrolo[2,3-b]pyridin-6-yl)amino)-3-methoxyphenyl)-1-(tetrahydro-2H-pyran-4-yl)-1,4-azaphosphinane 4-oxide], for which the inhibition at 0.5 µM in assay [2] was 21%; in assay [3] it was 6.6%.

With `CCNc1cc(Nc2ccc(C(=O)N3CCN(C4COC4)CC3)c3c2OCCO3)nc2[nH]cc(C(F)(F)F)c12` [Example 173, (8-((4-(ethylamino)-3-(trifluoromethyl)-1H-pyrrolo[2,3-b]pyridin-6-yl)amino)-2,3-dihydrobenzo[b] [1,4]dioxin-5-yl)(4-(oxetan-3-yl)piperazin-1-yl)methanone], the inhibition at 0.5 µM worked out at 9.1% in assay [2] and 5.9% in assay [3].

`CCNc1cc(Nc2ccc(C(=O)N3C[C@@H]4C[C@H]3CO4)c3c2OCCO3)nc2[nH]cc(C(F)(F)F)c12` [Example 44, ((1S,4S)-2-oxa-5-azabicyclo[2.2.1]heptan-5-yl)(8-((4-(ethylamino)-3-(trifluoromethyl)-1H-pyrrolo[2,3-b]pyridin-6-yl)amino)-2,3-dihydrobenzo[b] [1,4]dioxin-5-yl)methanone]: the concentration for 50% growth inhibition (GI50) in assay [1] is 0.301 to 1 µM. Also, the inhibition at 0.5 µM in assay [2] was determined as 47.9%; in assay [3] it was 100%.

Molecule `COc1cc(S(=O)(=O)N2CCC(N3CCOCC3)CC2)ccc1Nc1cc(NCCS(C)(=O)=O)c2c(C(F)(F)F)c[nH]c2n1` [Example 194, N^6-(2-methoxy-4-((4-morpholinopiperidin-1-yl)sulfonyl)phenyl)-N^4-(2-(methylsulfonyl)ethyl)-3-(trifluoromethyl)-1H-pyrrolo[2,3-b]pyridine-4,6-diamine] gave a GI50 in assay [1] of 0.301 to 1 µM. The inhibition at 0.5 µM stood at 6.3% in assay [2] and 37.6% in assay [3].

Take `CCNc1cc(Nc2cc(F)c(S(=O)(=O)N3CCC(N4CCOCC4)CC3)cc2OC)nc2[nH]cc(C(F)(F)F)c12` [Example 266, N^4-ethyl-N^6-(5-fluoro-2-methoxy-4-((4-morpholinopiperidin-1-yl)sulfonyl)phenyl)-3-(trifluoromethyl)-1H-pyrrolo[2,3-b]pyridine-4,6-diamine]: the concentration for 50% growth inhibition (GI50) in assay [1] was 0.301 to 1 µM.

Take `CNc1cc(Nc2ccc(C(=O)N3CC[C@@H](N4CCOCC4)C3)c3c2OCC3)nc2[nH]cc(C(F)(F)F)c12` [Example 214, (R)-(7-((4-(methylamino)-3-(trifluoromethyl)-1H-pyrrolo[2,3-b]pyridin-6-yl)amino)-2,3-dihydrobenzofuran-4-yl)(3-morpholinopyrrolidin-1-yl)methanone]: the inhibition at 0.5 µM in assay [3] was found to be 12%.

On to `CCNc1cc(Nc2ccc(C(=O)N3CCC(N4CCOCC4)CC3)c3c2OCC3)nc2[nH]cc(C(F)(F)F)c12` [Example 90, (7-((4-(ethylamino)-3-(trifluoromethyl)-1H-pyrrolo[2,3-b]pyridin-6-yl)amino)-2,3-dihydrobenzofuran-4-yl)(4-morpholinopiperidin-1-yl)methanone], for which the inhibition at 0.5 µM stood at 12.2% in assay [2] and 12.4% in assay [3].

On to `CNc1cc(Nc2ccc(S(=O)(=O)N3CCC(N4C[C@H]5C[C@@H]4CO5)CC3)cc2OC)nc2[nH]cc(C(F)(F)F)c12` [Example 243, N^6-(4-((4-((1R,4R)-2-oxa-5-azabicyclo[2.2.1]heptan-5-yl)piperidin-1-yl)sulfonyl)-2-methoxyphenyl)-N^4-methyl-3-(trifluoromethyl)-1H-pyrrolo[2,3-b]pyridine-4,6-diamine], for which the 50% growth inhibitory concentration (GI50) in assay [1] was 0.051 to 0.1 µM. In addition, the figures for the inhibition at 0.5 µM in assay [2] and in assay [3] were 32.3% and 2.1%, respectively.
